How the values were obtained:
Experiment in all cases: Kinetic studies of β-cyclodextrin forming activity on Paselli SA2 with and without β-cyclodextrin (product inhibition)
Type in all cases: biochemical
[1] = target: T1, Bacillus circulans Strain 251 CGTase (cyclomaltodextrin glucanotransferase), wild type, SEQ ID NO: 70 (Niallia circulans, UniProt P43379); conditions: inhibition by β-cyclodextrin (0.1 or 0.2 mM), substrate 0-5% Paselli SA2, 50° C., Hill equation fit
T1 construct: a high extracellular production of wild-type enzyme and CGTase variants was obtained reproducibly; made in house; host or cells: Bacillus subtilis Strain DB104A (plasmid pDP66K)
T1 sequence (P43379 28-713): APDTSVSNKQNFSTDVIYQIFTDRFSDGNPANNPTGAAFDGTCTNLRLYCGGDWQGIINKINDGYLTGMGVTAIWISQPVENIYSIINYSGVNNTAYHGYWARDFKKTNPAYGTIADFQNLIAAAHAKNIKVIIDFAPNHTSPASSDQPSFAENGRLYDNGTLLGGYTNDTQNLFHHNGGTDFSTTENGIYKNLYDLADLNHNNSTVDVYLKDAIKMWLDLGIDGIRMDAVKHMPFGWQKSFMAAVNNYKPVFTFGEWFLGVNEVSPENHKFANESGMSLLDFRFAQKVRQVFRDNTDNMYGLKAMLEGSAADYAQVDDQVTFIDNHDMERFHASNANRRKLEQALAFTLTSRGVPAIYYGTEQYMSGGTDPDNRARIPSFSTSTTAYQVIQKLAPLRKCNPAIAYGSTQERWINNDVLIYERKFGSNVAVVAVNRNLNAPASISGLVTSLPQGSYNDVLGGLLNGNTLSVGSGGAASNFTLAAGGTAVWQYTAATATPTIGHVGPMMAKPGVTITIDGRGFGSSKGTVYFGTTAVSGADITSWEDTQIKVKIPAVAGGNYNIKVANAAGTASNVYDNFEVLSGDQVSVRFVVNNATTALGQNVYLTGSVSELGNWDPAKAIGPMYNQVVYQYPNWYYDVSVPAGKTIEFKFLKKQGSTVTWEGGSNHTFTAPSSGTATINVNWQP
Method: (§1) β-cyclodextrin Forming Activity: β-cyclodextrin forming activity was determined using 5% Paselli™ SA2 (i.e. partially hydrolysed potato starch with an average degree of polymerization of 50, available from AVEBE, Foxhol, The Netherlands) as substrate and after incubation for 3 minutes at 50° C. 0.1-0.1 units of activity were used. The β-cyclodextrin formed was determined based on its ability to form a stable colorless inclusion complex with phenolphthalein. One unit of activity is defined as the amount of enzyme able to form 1 μmol of β-cyclodextrin per minute.
(§2) Kinetic Studies: Kinetic studies on Paselli™ SA2 (AVEBE, Foxhol, The Netherlands) were performed by determination of the β-cyclodextrin forming activity of the enzyme on Paselli™ concentrations ranging from 0 to 5%, with and without addition of 0.1 or 0.2 mM of β-cyclodextrin. In these experiments approx. 0.6 μg/ml (0.15-0.18 units) of enzyme was used.
(§3) The data collected from these kinetic and binding studies were fitted using the Hill equation, yielding Ymax and K50 values for the binding studies, and Vmax and K50 values for the kinetic studies. Ki values were calculated as follows. [formula] Results

[2] = target: T2, Bacillus circulans Strain 251 CGTase variant W616A/W662A (Niallia circulans, UniProt P43379, W643A/W689A)
T2 construct: a high extracellular production of wild-type enzyme and CGTase variants was obtained reproducibly; made in house; host or cells: Bacillus subtilis Strain DB104A (plasmid pDP66K)
T2 sequence (P43379 28-713 W643A/W689A): as the sequence (P43379 28-713) above, with W616A, W662A counted along it
Method: as §1, §2, §3

[3] = target: T3, Bacillus circulans Strain 251 CGTase variant Y633A (Niallia circulans, UniProt P43379, Y660A)
T3 construct: a high extracellular production of wild-type enzyme and CGTase variants was obtained reproducibly; made in house; host or cells: Bacillus subtilis Strain DB104A (plasmid pDP66K)
T3 sequence (P43379 28-713 Y660A): as the sequence (P43379 28-713) above, with Y633A counted along it
Method: as §1, §2, §3

OC[C@H]1O[C@@H]2O[C@H]3[C@H](O)[C@@H](O)[C@@H](O[C@H]4[C@H](O)[C@@H](O)[C@@H](O[C@H]5[C@H](O)[C@@H](O)[C@@H](O[C@H]6[C@H](O)[C@@H](O)[C@@H](O[C@H]7[C@H](O)[C@@H](O)[C@@H](O[C@H]8[C@H](O)[C@@H](O)[C@@H](O[C@H]1[C@H](O)[C@H]2O)O[C@@H]8CO)O[C@@H]7CO)O[C@@H]6CO)O[C@@H]5CO)O[C@@H]4CO)O[C@@H]3CO [β-cyclodextrin]
Ki [1]: 380 µM
Ki [2]: 1110 µM
Ki [3]: 210 µM

Source: US6004790A, “Cyclomaltodextrin glucanotransferase variants” (priority 1995, dated 1999)
